Results published in publication PMC11267363, “Supramolecular Nanofibers Ameliorate Bleomycin‐Induced Pulmonary Fibrosis by Restoring Autophagy” (Advanced Science, 2024).
Ends that are not written are not given here.

What was measured:
[1] = Self-assembly in saline buffer (Tyndall path, TEM nanostructure); format: physicochemical
Text: To verify our hypothesis, we utilized the self‐assembling factor (Acetyl‐Gly‐Phe‐Phe‐Tyr, Ac‐GFFY) to regulate the secondary conformation of A2 peptide (GGWLTRLLQTK) from p62 UBA domain binding with TRB3.^[ [16] ^] The self‐assembling factor Ac‐GFFY was covalently attached to the N‐terminal of peptide A2 to introduce Ac‐GFFY‐A2 (Figure 2a) as a modulator of the TRB3/p62 PPIs, non‐self‐assembling peptide A2 as the control group. Both of those peptide compounds were synthesized by standard solid phase peptide synthesis (SPPS), purified by reversed‐phase high‐performance liquid chromatography (HPLC), and identified through the high‐resolution mass spectrometry (HR‐MS, Figures S4 and S5, Supporting Information). The 0.5 wt% of peptide Ac‐GFFY‐A2 could observe an obvious “Tyndall path” in saline buffer (0.9% NaCl) after the heating‐cooling process (Figure S13, Supporting Information), compared with peptide A2 solution (0.5 wt%, saline buffer). The critical aggregation concentration (CAC) of those compounds was detected by dynamic light scattering. […] Furthermore, a transmission electron microscope (TEM) was used to observe the nanostructures formed by different compounds. Ac‐GFFY‐A2 could self‐assemble and form entangled nanofibers with a diameter of 8–12 nm (Figure 2b).
Transmission electron microscopy (TEM)
The samples (0.5 wt%, 10 μL) were loaded onto copper mesh coated with carbon.
After excess liquid was removed by a filter paper, 2% uranium acetate was used for dyeing the sample for 1 minute and the sample was dried overnight in a dryer. The samples were then imaged at 200 kV using a Tecnai G2 F20 system.
Circular dichroism (CD) spectrum
A BioLogic (MOS-450) system was used to record the circular dichroism spectrum.
Test wavelengths was in the range from 180 nm to 280 nm. […]
The CAC values were determined by dynamic light scattering (DLS). Solutions containing different concentration of compound in saline buffer were tested and the light scattering intensity was recorded for each concentration analyzed. […]

[2] = molecular target: bovine serum albumin (BSA) (Bos taurus, UniProt P02769); experiment: Microscale thermophoresis (MST) binding to BSA (negative control protein); settings: BSA as negative control
Method: To determine the effects of the self‐assembly factor “Ac‐GFFY” on the secondary structure of the A2 peptide fragment, Circular dichroism (CD) and Fourier transform infrared (FTIR) measurements were performed. […] We subsequently assessed the binding affinity between Ac‐GFFY‐A2 or A2 peptides to the human TRB3 protein or bovine serum albumin (BSA) using microscale thermophoresis (MST) assay, with BSA serving as the control group. […] Therefore, we labeled the peptide with the fluorescence group 7‐nitro‐1,2,3‐benzoxadiazole (NBD) to determine the cellular uptake via flow cytometer. The NBD‐labeled peptide was incubated with both of normal and activated MRC‐5 cells for 4 h, respectively. […] Collectively, under the action of supramolecular self‐assembly, the peptide assemblies with stable secondary conformation can not only be effectively absorbed by MRC‐5 cells but also have the potential to interfere with TRB3/p62 PPIs.
HR‐MS (Varian QFT‐ESI) was used to characterize the molecular weight of compounds. TEM (JEM100CXII) was performed at the Tecnai G2 F20 system, operating at 100 kV. Circular dichroism (CD) spectrum was obtained by a BioLogic (MOS‐450) system. Dynamic light scattering was measured by a ZETAPALS/BI‐200SM (BROOKHAVEN) system. Confocal laser scanning microscopy (CLSM) was measured by Leica TCS SP‐5. Flow cytometry (BD, FACS) was used to detect the cellular uptake. […]

Sequence of bovine serum albumin (BSA) (P02769 25-607): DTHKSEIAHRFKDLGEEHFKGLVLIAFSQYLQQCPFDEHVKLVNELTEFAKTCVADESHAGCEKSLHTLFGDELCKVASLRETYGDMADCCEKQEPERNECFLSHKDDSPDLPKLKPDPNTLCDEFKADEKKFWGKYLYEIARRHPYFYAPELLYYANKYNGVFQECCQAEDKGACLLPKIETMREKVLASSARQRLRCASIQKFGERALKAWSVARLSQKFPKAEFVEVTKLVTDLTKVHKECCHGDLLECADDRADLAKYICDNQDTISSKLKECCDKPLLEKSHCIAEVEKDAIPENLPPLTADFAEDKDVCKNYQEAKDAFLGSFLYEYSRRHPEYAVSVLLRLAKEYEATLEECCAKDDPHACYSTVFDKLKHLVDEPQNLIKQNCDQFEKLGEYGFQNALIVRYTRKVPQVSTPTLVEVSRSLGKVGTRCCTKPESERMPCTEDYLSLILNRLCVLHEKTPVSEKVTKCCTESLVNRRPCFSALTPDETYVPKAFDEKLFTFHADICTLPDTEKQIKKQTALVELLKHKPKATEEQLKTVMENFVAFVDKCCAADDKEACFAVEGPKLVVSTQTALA

| Substance | Tyndall path ([1]; 0.5 wt% in saline buffer (0.9% NaCl) after heating-cooling process) | diameter of entangled nanofibers (TEM) ([1]; 0.5 wt% in saline buffer after heating-cooling process, TEM) | binding with BSA [2] | nanostructure in TEM image ([1]; 0.5 wt%, saline buffer, TEM) |
| --- | --- | --- | --- | --- |
| Ac-GFFYGGWLTRLLQTK-OH [Ac-GFFY-A2] | obvious | 8–12 nm | no binding | – |
| GGWLTRLLQTK-OH [A2, reference compound] | – | – | no binding | amorphous structures |
